{
  "source": "ChEMBL document CHEMBL4699511",
  "about": "“Cedrol, a Sesquiterpene Alcohol, Enhances the Anticancer Efficacy of Temozolomide in Attenuating Drug Resistance via Regulation of the DNA Damage Response and MGMT Expression” (J Nat Prod, 2020)",
  "key": {"RG2 [1]": {"tested_on": "RG2", "assay": "Induction of cell cycle arrest in rat RG2 cells assessed as accumulation at G0/G1 phase at 206 uM after 6 hrs by propidium iodide staining based flow cytometric analysis (reference value: 57.81 +/- 1.9%)", "format": "functional"}, "RG2 [2]": {"tested_on": "RG2", "assay": "Induction of cell cycle arrest in rat RG2 cells assessed as accumulation at S phase at 206 uM after 48 hrs by propidium iodide staining based flow cytometric analysis (reference value: 20.15 +/- 2.44%)", "format": "functional"}, "DBTRG-05MG [3]": {"tested_on": "DBTRG-05MG", "assay": "Induction of cell cycle arrest in human DBTRG-05MG cells assessed as p53 expression at 206 uM after 48 hrs by Western blot analysis (reference value: 1)", "format": "functional"}, "RG2 [4]": {"tested_on": "RG2", "assay": "Induction of cell cycle arrest in rat RG2 cells assessed as CDK4 expression at 206 uM after 48 hrs by Western blot analysis (reference value: 1)", "format": "functional"}, "[5]": {"assay": "Effect on p38 expression in rat RG2 cells at 206 uM after 48 hrs by Western blot analysis (reference value: 1)", "format": "functional"}, "DBTRG-05MG [6]": {"tested_on": "DBTRG-05MG", "assay": "Synergistic cytotoxicity against human DBTRG-05MG cells assessed as synergistic effect index at 134.9 uM after 48 hrs in presence of 515.1 uM TMZ by MTT assay", "format": "functional"}, "DBTRG-05MG [7]": {"tested_on": "DBTRG-05MG", "assay": "Synergistic cytotoxicity against human DBTRG-05MG cells assessed as combination index at 112.4 uM after 48 hrs in presence of 103 uM TMZ by MTT assay", "format": "functional"}, "DBTRG-05MG [8]": {"tested_on": "DBTRG-05MG", "assay": "Synergistic cytotoxicity against human DBTRG-05MG cells assessed as combination index at 134.9 uM after 48 hrs in presence of 412.1 uM TMZ by MTT assay", "format": "functional"}, "RG2 [9]": {"tested_on": "RG2", "assay": "Synergistic cytotoxicity against rat RG2 cells assessed as synergistic effect index at 112.4 uM after 48 hrs in presence of 412.1 uM TMZ by MTT assay", "format": "functional"}, "RG2 [10]": {"tested_on": "RG2", "assay": "Synergistic cytotoxicity against rat RG2 cells assessed as combination index at 89.9 uM after 48 hrs in presence of 515.1 uM TMZ by MTT assay", "format": "functional"}, "[11]": {"assay": "Synergistic cytotoxicity against rat CTX TNA2 cells assessed as synergistic effect index at 112.4 uM after 48 hrs in presence of 412.1 uM TMZ by MTT assay", "format": "cell-based", "conditions": "ctx tna2, 48 h"}, "[12]": {"assay": "Synergistic cytotoxicity against rat CTX TNA2 cells assessed as synergistic effect index at 112.4 uM after 48 hrs in presence of 515.1 uM TMZ by MTT assay", "format": "cell-based", "conditions": "ctx tna2, 48 h"}, "[13]": {"assay": "Synergistic cytotoxicity against rat CTX TNA2 cells assessed as combination index at 89.9 uM after 48 hrs in presence of 412.1 uM TMZ by MTT assay", "format": "cell-based", "conditions": "ctx tna2, 48 h"}, "DBTRG-05MG [14]": {"tested_on": "DBTRG-05MG", "assay": "Induction of cell cycle arrest in human DBTRG-05MG cells assessed as accumulation at S phase at 112.4 uM after 12 hrs by propidium iodide staining based flow cytometric analysis (reference value: 22.76 +/- 1.56%)", "format": "functional"}, "DBTRG-05MG [15]": {"tested_on": "DBTRG-05MG", "assay": "Induction of cell cycle arrest in human DBTRG-05MG cells assessed as accumulation at G2/M phase at 112.4 uM after 12 hrs by propidium iodide staining based flow cytometric analysis (reference value: 30.08 +/- 0.1%)", "format": "functional"}, "RG2 [16]": {"tested_on": "RG2", "assay": "Induction of cell cycle arrest in rat RG2 cells assessed as accumulation at G0/G1 phase at 112.4 uM after 12 hrs in presence of TMZ by propidium iodide staining based flow cytometric analysis (reference value: 57.81 +/- 1.9%)", "format": "functional"}, "RG2 [17]": {"tested_on": "RG2", "assay": "Induction of cell cycle arrest in rat RG2 cells assessed as accumulation at S phase at 112.4 uM after 24 hrs in presence of TMZ by propidium iodide staining based flow cytometric analysis (reference value: 20.15 +/- 2.44%)", "format": "functional"}, "DBTRG-05MG [18]": {"tested_on": "DBTRG-05MG", "assay": "Induction of cell cycle arrest in human DBTRG-05MG cells assessed as CyclinD1 expression at 112.4 uM after 48 hrs by Western blot analysis (reference value: 1)", "format": "functional"}, "DBTRG-05MG [19]": {"tested_on": "DBTRG-05MG", "assay": "Induction of cell cycle arrest in human DBTRG-05MG cells assessed as CDK2 expression at 112.4uM after 48 hrs by Western blot analysis (reference value: 1)", "format": "functional"}, "DBTRG-05MG [20]": {"tested_on": "DBTRG-05MG", "assay": "Induction of cell cycle arrest in human DBTRG-05MG cells assessed as CyclinB1 expression at 112.4 uM after 48 hrs by Western blot analysis (reference value: 1)", "format": "functional"}, "DBTRG-05MG [21]": {"tested_on": "DBTRG-05MG", "assay": "Induction of cell cycle arrest in human DBTRG-05MG cells assessed as CyclinA expression at 112.4 uM after 48 hrs in presence of TMZ by Western blot analysis (reference value: 1)", "format": "functional"}, "RG2 [22]": {"tested_on": "RG2", "assay": "Induction of cell cycle arrest in rat RG2 cells assessed as p21 expression at 112.4 uM after 48 hrs by Western blot analysis (reference value: 1)", "format": "functional"}, "[23]": {"target": "Serine/threonine-protein kinase AKT (Homo sapiens) (UniProt P31751+Q9Y243+P31749)", "sequence (P31749 whole entry, looked up)": "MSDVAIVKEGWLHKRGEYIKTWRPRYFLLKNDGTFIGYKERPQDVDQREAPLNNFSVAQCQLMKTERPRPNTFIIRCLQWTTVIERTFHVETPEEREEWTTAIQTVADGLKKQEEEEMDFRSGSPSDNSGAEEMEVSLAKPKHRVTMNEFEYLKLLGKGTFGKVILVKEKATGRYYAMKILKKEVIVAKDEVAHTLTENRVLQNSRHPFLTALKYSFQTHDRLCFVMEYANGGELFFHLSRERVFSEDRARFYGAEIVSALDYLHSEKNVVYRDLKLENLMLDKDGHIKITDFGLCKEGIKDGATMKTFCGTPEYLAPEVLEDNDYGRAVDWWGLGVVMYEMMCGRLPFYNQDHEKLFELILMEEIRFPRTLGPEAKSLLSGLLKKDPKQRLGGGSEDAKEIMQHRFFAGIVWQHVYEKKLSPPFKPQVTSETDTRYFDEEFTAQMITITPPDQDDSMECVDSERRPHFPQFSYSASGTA", "sequence (P31751 whole entry, looked up)": "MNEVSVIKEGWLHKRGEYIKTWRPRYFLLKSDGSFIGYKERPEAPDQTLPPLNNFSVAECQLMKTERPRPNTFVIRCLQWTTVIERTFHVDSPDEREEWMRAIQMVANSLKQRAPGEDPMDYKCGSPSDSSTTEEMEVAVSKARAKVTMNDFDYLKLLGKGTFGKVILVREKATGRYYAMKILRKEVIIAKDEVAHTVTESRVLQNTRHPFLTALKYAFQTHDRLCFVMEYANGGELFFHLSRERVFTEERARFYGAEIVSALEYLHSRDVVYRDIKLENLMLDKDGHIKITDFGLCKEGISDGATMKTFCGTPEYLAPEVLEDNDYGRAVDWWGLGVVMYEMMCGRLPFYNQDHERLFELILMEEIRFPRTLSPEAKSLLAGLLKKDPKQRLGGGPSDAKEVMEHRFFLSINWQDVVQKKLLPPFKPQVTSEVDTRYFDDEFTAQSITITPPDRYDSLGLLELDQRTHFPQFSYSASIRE", "sequence (Q9Y243 whole entry, looked up)": "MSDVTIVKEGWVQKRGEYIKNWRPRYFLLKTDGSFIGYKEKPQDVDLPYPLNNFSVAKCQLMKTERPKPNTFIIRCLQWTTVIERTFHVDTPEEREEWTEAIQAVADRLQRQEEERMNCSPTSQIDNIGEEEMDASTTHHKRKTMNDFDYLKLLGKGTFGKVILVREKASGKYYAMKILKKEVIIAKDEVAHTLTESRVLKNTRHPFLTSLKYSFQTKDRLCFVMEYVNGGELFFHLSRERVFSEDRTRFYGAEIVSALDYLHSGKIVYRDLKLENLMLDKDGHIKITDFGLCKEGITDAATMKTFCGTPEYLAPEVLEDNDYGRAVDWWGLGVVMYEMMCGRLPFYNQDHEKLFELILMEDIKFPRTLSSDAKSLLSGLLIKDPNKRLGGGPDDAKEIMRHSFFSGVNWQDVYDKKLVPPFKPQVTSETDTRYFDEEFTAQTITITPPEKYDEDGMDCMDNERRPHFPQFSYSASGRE", "assay": "Inhibition of AKT phosphorylation at S473 residues in human DBTRG-05MG cells at 112.4uM after 48 hrs by Western blot analysis", "format": "cell-based"}, "[24]": {"assay": "Effect on ERK expression in human DBTRG-05MG cells at 112.4uM after 48 hrs in presence of TMZ by Western blot analysis (reference value: 1)", "format": "functional"}, "RG2 [25]": {"tested_on": "RG2", "assay": "Inhibition of ERK phosphorylation at Tyr204 residues in rat RG2 cells at 112.4uM after 48 hrs by Western blot analysis (reference value: 1)", "format": "cell-based"}, "DBTRG-05MG [26]": {"tested_on": "DBTRG-05MG", "assay": "Induction of apoptosis in human DBTRG-05MG cells assessed as Bax expression at 112.4 uM after 48 hrs by Western blot analysis (reference value: 1)", "format": "functional"}, "DBTRG-05MG [27]": {"tested_on": "DBTRG-05MG", "assay": "Induction of apoptosis in human DBTRG-05MG cells assessed as cleaved caspace-3 expression at 112.4 uM after 48 hrs by Western blot analysis (reference value: 1)", "format": "functional"}, "DBTRG-05MG [28]": {"tested_on": "DBTRG-05MG", "assay": "Induction of apoptosis in human DBTRG-05MG cells assessed as phosphorylated PARP expression at 112.4 uM after 48 hrs by Western blot analysis (reference value: 1)", "format": "functional"}, "RG2 [29]": {"tested_on": "RG2", "assay": "Induction of apoptosis in rat RG2 cells assessed as phosphorylated caspace-9 expression at 112.4 uM after 48 hrs by Western blot analysis (reference value: 1)", "format": "functional"}, "RG2 [30]": {"tested_on": "RG2", "assay": "Induction of apoptosis in rat RG2 cells assessed as phosphorylated PARP expression at 112.4 uM after 48 hrs in presence of TMZ by Western blot analysis (reference value: 1)", "format": "functional"}, "DBTRG-05MG [31]": {"tested_on": "DBTRG-05MG", "assay": "Induction of DNA damage in human DBTRG-05MG cells assessed as H2A.X phosphorylation at ser139 residues at 112.4 uM after 48 hrs by Western blot analysis (reference value: 1)", "format": "functional"}, "DBTRG-05MG [32]": {"tested_on": "DBTRG-05MG", "assay": "Induction of DNA damage in human DBTRG-05MG cells assessed as ATR phosphorylation at ser428 residues at 112.4 uM after 48 hrs in presence of TMZ by Western blot analysis (reference value: 1)", "format": "functional"}, "[33]": {"assay": "Effect of MDR1 expression in rat RG2 cells at 112.4 uM after 48 hrs by Western blot analysis", "format": "functional"}, "DBTRG-05MG [34]": {"tested_on": "DBTRG-05MG", "assay": "Antitumour activity against human DBTRG-05MG cells xenografted in BALB/c nude mouse assessed as increase in survival time at 75 mg/kg, sc for every 2 days for 20 days and measured every 2 days", "format": "functional, organism-based", "conditions": "time 20.0 day"}},
  "note": "Calls of active or inactive are those of the source. The rule behind the calls is not given here.",
  "data": [
    {"smiles": "Cn1nnc2c(C(N)=O)ncn2c1=O", "note": "[TEMOZOLOMIDE]", "values": [
      {"measurement": "Activity", "setting": "RG2 [1]", "result": 54.73, "unit": "%"},
      {"measurement": "Activity", "setting": "RG2 [2]", "result": 18.32, "unit": "%"},
      {"measurement": "fold change (FC)", "setting": "DBTRG-05MG [3]", "result": 2},
      {"measurement": "fold change (FC)", "setting": "RG2 [4]", "result": 0.6},
      {"measurement": "fold change (FC)", "setting": "[5]", "result": 0.7}
    ]},
    {"smiles": "C[C@@H]1CC[C@H]2C(C)(C)[C@H]3C[C@@]12CC[C@@]3(C)O", "note": "[CEDROL]", "values": [
      {"measurement": "Activity_index", "setting": "DBTRG-05MG [6]", "result": 0.89},
      {"measurement": "CI", "setting": "DBTRG-05MG [7]", "result": 0.56},
      {"measurement": "CI", "setting": "DBTRG-05MG [8]", "result": 0.6},
      {"measurement": "Activity_index", "setting": "RG2 [9]", "result": 0.84},
      {"measurement": "CI", "setting": "RG2 [10]", "result": 1.38},
      {"measurement": "Activity_index", "setting": "[11]", "result": 0.58},
      {"measurement": "Activity_index", "setting": "[12]", "result": 0.7},
      {"measurement": "CI", "setting": "[13]", "result": 1.11},
      {"measurement": "Activity", "setting": "DBTRG-05MG [14]", "result": 14.32, "unit": "%"},
      {"measurement": "Activity", "setting": "DBTRG-05MG [15]", "result": 31.03, "unit": "%"},
      {"measurement": "Activity", "setting": "RG2 [16]", "result": 61.92, "unit": "%"},
      {"measurement": "Activity", "setting": "RG2 [17]", "result": 11.96, "unit": "%"},
      {"measurement": "fold change (FC)", "setting": "DBTRG-05MG [18]", "result": 0.7},
      {"measurement": "fold change (FC)", "setting": "DBTRG-05MG [19]", "result": 0.7},
      {"measurement": "fold change (FC)", "setting": "DBTRG-05MG [20]", "result": 0.5},
      {"measurement": "fold change (FC)", "setting": "DBTRG-05MG [21]", "result": 1.6},
      {"measurement": "fold change (FC)", "setting": "RG2 [22]", "result": 1.6},
      {"measurement": "fold change (FC)", "setting": "[23]", "result": 0.8},
      {"measurement": "fold change (FC)", "setting": "[24]", "result": 0.8},
      {"measurement": "fold change (FC)", "setting": "RG2 [25]", "result": 0.9},
      {"measurement": "fold change (FC)", "setting": "DBTRG-05MG [26]", "result": 1.3},
      {"measurement": "fold change (FC)", "setting": "DBTRG-05MG [27]", "result": 2.2},
      {"measurement": "fold change (FC)", "setting": "DBTRG-05MG [28]", "result": 0.7},
      {"measurement": "fold change (FC)", "setting": "RG2 [29]", "result": 0.6},
      {"measurement": "fold change (FC)", "setting": "RG2 [30]", "result": 0.5},
      {"measurement": "fold change (FC)", "setting": "DBTRG-05MG [31]", "result": 0.9},
      {"measurement": "fold change (FC)", "setting": "DBTRG-05MG [32]", "result": 2.3},
      {"measurement": "fold change (FC)", "setting": "[33]", "result": 2.1},
      {"measurement": "Activity", "setting": "DBTRG-05MG [34]", "result": "Active"}
    ]}
  ]
}
